Experimental data reported in patent publication EP1043331A1, “BONE-RESORPTIVE CYTOKINE INHIBITOR CONTAINING DIENOGEST AS THE ACTIVE INGREDIENT” (MOCHIDA PHARMACEUTICAL CO., LTD., priority 1997, dated 1999).
Marks after values point to notes of the source that are not given here.

Columns and labels:
Assay type in all cases: cell-based, mouse
PKA = PKA activity in murine osteoblast (time-resolved fluorometry); details: Fig.2
Experimental: According to the method by Johansen, et al. (Journal Bone and Mineral Research, Vol.7, pp.501-509, 1992), osteoblast was collected from the femoral bones of a female SLC : ICR mouse of age 15 weeks. Under anesthesia with pentobarbital sodium (25 mg/kg, intraperitoneal administration), postcava was cut to bleed and kill the animal to death. Then, bilateral femoral bones were resected. This bone was cut with a pair of bone scissors, to remove the bone marrow with a micro-loop. The inner face of the bone was rubbed off with a sharp blade. The resulting matter was agitated in a 10 % collagenase solution (Nitta gelatin) at 37 °C for 20 minutes, and to the resulting mixture was added a culture medium (an MEM culture medium supplemented with 10 % charcoal-treated bovine fetal serum; manufactured by Nissui Pharmaceutical, Co. Ltd.) prior to centrifugation (300×g, 5 minutes and 20 °C). The resulting cells were dispersed in a fresh culture medium and then inoculated on a plastic culture dish (diameter of 35 mm, Primaria (Falcon)). […] Osteoblast was identified by using alkali phosphatase staining as an osteoblast marker. For recovering osteoblast from an animal after ovariectomy, ovariectomy was carried out at age 11 weeks, and the animal was fed for the following 4 weeks, prior to the same treatment. 1×10^4 cells/ml osteoblast suspension (100 µl), a culture medium (890 µl) and a drug solution (10 µl) were added into each well of a plastic 24-well culture plate (Falcon), for culturing at 37 °C in 5 % CO2/95 % air for 24 hours, and then, the resulting culture was centrifuged (300 ×g, 5 minutes, 20°C) to recover the supernatant, which was defined as a cytokine assay sample. […] For experiments, furthermore, three dishes per each group were used. The osteoblast recovered by the method of the Experimental Example 1 was used. […] An enhancer reagent (100 µl) was added, for agitation at room temperature for 5 minutes, to determine the fluorescence intensity with a time-resolved fluorometer. Based on a preliminarily prepared standard curve, PKA activity was calculated.

TNF-α = TNF-α release from murine osteoblast (culture supernatant cytokine assay); details: 24 hours culture
Experimental: According to the method by Johansen, et al. (Journal Bone and Mineral Research, Vol.7, pp.501-509, 1992), osteoblast was collected from the femoral bones of a female SLC : ICR mouse of age 15 weeks. Under anesthesia with pentobarbital sodium (25 mg/kg, intraperitoneal administration), postcava was cut to bleed and kill the animal to death. Then, bilateral femoral bones were resected. This bone was cut with a pair of bone scissors, to remove the bone marrow with a micro-loop. The inner face of the bone was rubbed off with a sharp blade. The resulting matter was agitated in a 10 % collagenase solution (Nitta gelatin) at 37 °C for 20 minutes, and to the resulting mixture was added a culture medium (an MEM culture medium supplemented with 10 % charcoal-treated bovine fetal serum; manufactured by Nissui Pharmaceutical, Co. Ltd.) prior to centrifugation (300×g, 5 minutes and 20 °C). The resulting cells were dispersed in a fresh culture medium and then inoculated on a plastic culture dish (diameter of 35 mm, Primaria (Falcon)). At 37 °C in 5 % CO2/95% air, the cells were cultured for 24 hours, and the attached cells were recovered in a 0.25 % trypsin solution to prepare a cell suspension of 1×10^4 cells/ml. Osteoblast was identified by using alkali phosphatase staining as an osteoblast marker. For recovering osteoblast from an animal after ovariectomy, ovariectomy was carried out at age 11 weeks, and the animal was fed for the following 4 weeks, prior to the same treatment.
As a control substance, furthermore, MPA and danazol were used after they were dissolved and diluted in DMSO. DMSO was used as a solvent control.
1×10^4 cells/ml osteoblast suspension (100 µl), a culture medium (890 µl) and a drug solution (10 µl) were added into each well of a plastic 24-well culture plate (Falcon), for culturing at 37 °C in 5 % CO2/95 % air for 24 hours, and then, the resulting culture was centrifuged (300 ×g, 5 minutes, 20°C) to recover the supernatant, which was defined as a cytokine assay sample. The final concentrations of the drug were 10^-11, 10^-10 and 10^-9 M. For experiments, furthermore, three dishes per each group were used.
Using SMRART ™ (Pharmacia Biotech, Uppsala, Sweden), the supernatant was concentrated by about 10 fold, after the termination of culturing. The level of cytokine in the sample was assayed by using assay kits of murine IL-1β, IL-6 and TNF-α (Cytoscreen™, BioSource International, Camarillo, Calif. CA, USA) and europium-labeled streptoavidin (Pharmacia Biotech).

murine osteoclast = assay: Frequency of occurrence of apoptosis in murine osteoclast; details: 7 days, one hundred cells with two or more nuclei observed, control 4.0
Experimental: By a method according to the report by Takahashi et al. (Endocrinology, Vol.122, pp.1373-1382, 1988), osteoclast was prepared. More specifically, a female SLC:ICR mouse of age 7 weeks was bled and killed to death, under anesthesia with pentobarbital sodium (25 mg/kg, intraperitoneal administration), and from the mouse; her femoral bone was resected. Both the ends were cut, to rinse off the […] into α-MEM (Gibco) (1 ml). […] 0.5 ml of the cell suspension was inoculated in a 24-well microtiter plate. To the wells was added 100 ng/ml parathyroid hormone (Sigma Chemical Co.) for culturing in 5 % CO2/95 % air at 37 °C for 2 days. […] Herein, three plates were used per one concentration of each drug. […] After rinsing in PBS, the apoptosis cells were detected by using an ApopTagPlus Insitu Apoptosis Detection kit peroxidase (Oncor, Gaithersburg, MD, USA) and a TSA-direct kit (GreenFISH, NEN Life Science Products, Boston, MA). Simultaneously, the smear sample was stained with a 20 µg/ml propidium iodide (Sigma Chemical Co.) solution containing 50 U/ml RNase, at room temperature for 15 minutes, to stain the nucleus. One hundred cells with two or more nuclei were observed under a cofocal laser scanning type fluorescence microscope (MRC-1000, BioRad), to determine the number of apoptosis-positive cells developed: The results are shown in Table 5.

[1] = doses of 10^-11, 10^-10 and 10^-9 M
[2] = osteoblast of non-treated mouse, 10^-9 M, control 23.5
[3] = osteoblast of non-treated mouse, 10^-10 M, control 23.5
[4] = osteoblast of non-treated mouse, 10^-11 M, control 23.5
[5] = osteoblast of ovariectomized mouse, 10^-9 M, control 45.0
[6] = osteoblast of ovariectomized mouse, 10^-10 M, control 45.0
[7] = osteoblast of ovariectomized mouse, 10^-11 M, control 45.0

| SMILES | PKA activity in the murine osteoblast (PKA; [1]) | TNF-α (TNF-α; [2]) | TNF-α (TNF-α; [3]) | TNF-α (TNF-α; [4]) | TNF-α (TNF-α; [5]) | TNF-α (TNF-α; [6]) | TNF-α (TNF-α; [7]) | frequency of apoptosis occurrence in murine osteoclast (number of apoptosis-positive cells) (murine osteoclast; 10^-9 M) | frequency of apoptosis occurrence in murine osteoclast (number of apoptosis-positive cells) (murine osteoclast; 10^-10 M) | frequency of apoptosis occurrence in murine osteoclast (number of apoptosis-positive cells) (murine osteoclast; 10^-11 M) | PKA activity in the murine osteoblast (PKA; at a concentration of 10^-9 M or more) |
| --- | --- | --- | --- | --- | --- | --- | --- | --- | --- | --- | --- |
| C#C[C@]1(O)CC[C@H]2[C@@H]3CCC4=Cc5oncc5C[C@]4(C)[C@H]3CC[C@@]21C [Danazol, danazol] | did not affect | 26.1** pg/ml | 24.3 pg/mL | 24.0 pg/mL | 47.5** pg/ml | 45.3 pg/mL | 45.3 pg/mL | 3.3 | 3.7 | 4.0 | – |
| C[C@]12CCC3=C4CCC(=O)C=C4CC[C@H]3[C@@H]1CC[C@@]2(O)CC#N [Dienogest, 17 α-cyanomethyl-17β-hydroxy-estra-4,9(10)-dien-3-one] | – | 14.8** pg/ml | 24.4 pg/mL | 24.7 pg/mL | 22.3** pg/ml | 29.8** pg/ml | 44.4 pg/mL | 16.3** | 5.0 | 3.7 | significantly enhanced |
| CC(=O)O[C@]1(C(C)=O)CC[C@H]2[C@@H]3C[C@H](C)C4=CC(=O)CC[C@]4(C)[C@H]3CC[C@@]21C [MPA, medroxyprogesterone acetate] | did not affect | 31.4** pg/ml | 25.3 pg/mL | 25.5 pg/mL | 47.6* pg/ml | 46.1 pg/mL | 44.6 pg/mL | 5.0 | 3.7 | 4.0 | – |
